Measured values from patent US9981944B2, “GDF-8 inhibitors” (Rigel Pharmaceuticals, Inc., priority 2015, dated 2018).

Tests used:
HIS-TGFβR1 T204D = HIS-TGFβR1 T204D (Homo sapiens (Human), UniProt P36897, T204D); assay: HTRF probe displacement assay, HIS-TGFβR1 T204D; format: binding; conditions: 1 nM HIS-TGFβR1 T204D, 1 hour at room temperature, read-out: TGFBR1T204D IC50
Procedure: (§1) Compounds were dissolved at 10 mM in dimethylsulfoxide (DMSO) and evaluated at eleven concentrations. IC50 values were derived by non-linear regression analysis.

HIS-TGFβR2 WT = HIS-TGFβR2 WT (Homo sapiens (Human), UniProt P37173); assay: HTRF probe displacement assay, HIS-TGFβR2 WT; format: binding; conditions: 1 nM HIS-TGFβR2 WT, 1 hour at room temperature, read-out: TGFBR2WT IC50
Sequence of HIS-TGFβR2 WT (P37173 23-567): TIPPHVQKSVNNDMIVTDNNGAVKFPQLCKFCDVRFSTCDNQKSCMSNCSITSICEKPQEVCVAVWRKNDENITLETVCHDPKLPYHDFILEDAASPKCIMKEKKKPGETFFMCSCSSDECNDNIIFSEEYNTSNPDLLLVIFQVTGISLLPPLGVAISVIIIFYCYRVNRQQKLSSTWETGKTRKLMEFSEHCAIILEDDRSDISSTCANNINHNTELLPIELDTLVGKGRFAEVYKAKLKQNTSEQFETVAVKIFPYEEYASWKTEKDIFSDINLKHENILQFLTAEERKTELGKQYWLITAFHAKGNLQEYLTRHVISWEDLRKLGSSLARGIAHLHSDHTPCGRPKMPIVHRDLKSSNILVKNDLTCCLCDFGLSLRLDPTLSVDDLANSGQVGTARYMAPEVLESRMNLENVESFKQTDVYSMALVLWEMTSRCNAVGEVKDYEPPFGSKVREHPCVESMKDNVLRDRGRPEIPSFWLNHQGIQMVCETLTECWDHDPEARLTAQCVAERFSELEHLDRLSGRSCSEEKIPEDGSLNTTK
Procedure: as §1

Sequence of HIS-TGFβR1 T204D (P36897 34-503 T204D): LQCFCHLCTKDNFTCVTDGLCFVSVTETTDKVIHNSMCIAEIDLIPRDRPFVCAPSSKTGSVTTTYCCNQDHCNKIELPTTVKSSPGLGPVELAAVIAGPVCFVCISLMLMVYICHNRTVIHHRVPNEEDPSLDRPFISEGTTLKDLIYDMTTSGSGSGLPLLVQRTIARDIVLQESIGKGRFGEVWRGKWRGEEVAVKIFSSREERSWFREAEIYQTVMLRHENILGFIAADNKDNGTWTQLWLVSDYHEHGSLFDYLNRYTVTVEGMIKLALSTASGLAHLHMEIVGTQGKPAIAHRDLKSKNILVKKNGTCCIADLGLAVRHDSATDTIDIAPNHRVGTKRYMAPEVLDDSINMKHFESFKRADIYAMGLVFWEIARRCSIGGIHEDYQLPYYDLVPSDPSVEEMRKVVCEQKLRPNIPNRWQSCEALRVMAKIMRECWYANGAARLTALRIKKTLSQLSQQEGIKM

Row | SMILES | IC50 (HIS-TGFβR1 T204D) | IC50 (HIS-TGFβR2 WT)
1 | CC(=O)Nc1cnc(-c2cccc(C)n2)c(-c2ccc3ncc(C#N)n3c2)c1 [Compound 96, N-(3-(3-cyanoimidazo[1,2-a]pyridin-6-yl)-6′-methyl-[2,2′-bipyridin]-5-yl)acetamide] | 43 nM | > 15 µM
2 | CNC(=O)c1cnn2ccc(-c3cccnc3-c3cccc(C)n3)nc12 [Compound 127, N-methyl-5-(6′-methyl-[2,2′-bipyridin]-3-yl)pyrazolo[1,5-a]pyrimidine-3-carboxamide] | 128 nM | > 15 µM
3 | Cc1cccc(-c2ncccc2-c2ccc3ncc(C(=O)NCC(F)(F)F)n3c2)n1 [Compound 69, 6-(6′-methyl-[2,2′-bipyridin]-3-yl)-N-(2,2,2-trifluoroethyl)imidazo[1,2-a]pyridine-3-carboxamide] | 7 nM | > 15 µM
4 | Cc1cccc(-c2nccc(C(F)F)c2-c2ccc3ncc(C#N)n3c2)n1 [Compound 93, 6-(4-(difluoromethyl)-6′-methyl-[2,2′-bipyridin]-3-yl)imidazo[1,2-a]pyridine-3-carbonitrile] | 15000 nM | > 15 µM
5 | NC(=O)c1cnc2ccc(-c3cc(F)cnc3-c3cccc(C(F)F)n3)cn12 [Compound 84, 6-(6′-(difluoromethyl)-5-fluoro-[2,2′-bipyridin]-3-yl)imidazo[1,2-a]pyridine-3-carboxamide] | 1 nM | > 15 µM
6 | Cc1cccc(-c2ncccc2-c2ccn3ncc(C(=O)NC4CC4)c3n2)n1 [Compound 128, N-cyclopropyl-5-(6′-methyl-[2,2′-bipyridin]-3-yl)pyrazolo[1,5-a]pyrimidine-3-carboxamide] | 33 nM | > 15 µM
7 | NC(=O)c1cnc2ccc(-c3cccnc3-c3cc(F)ccn3)nn12 [Compound 60, 6-(4′-fluoro-[2,2′-bipyridin]-3-yl)imidazo[1,2-b]pyridazine-3-carboxamide] | 161 nM | > 15 µM
8 | Nc1ncnc2ccc(-c3cccnc3-c3cccc(C(F)F)n3)nc12 [Compound 105, 6-(6′-(difluoromethyl)-[2,2′-bipyridin]-3-yl)pyrido[3,2-d]pyrimidin-4-amine] | 3 nM | > 15 µM
9 | N#Cc1cnc2ccc(-c3cc(F)cnc3-c3cccc(C(F)F)n3)cn12 [Compound 83, 6-(6′-(difluoromethyl)-5-fluoro-[2,2′-bipyridin]-3-yl)imidazo[1,2-a]pyridine-3-carbonitrile] | 22 nM | > 15 µM
10 | NC(=O)c1cnc2ccc(-c3cccnc3-c3ccc(F)cn3)nn12 [Compound 54, 6-(5′-fluoro-[2,2′-bipyridin]-3-yl)imidazo[1,2-b]pyridazine-3-carboxamide] | 254 nM | > 15 µM
11 | Cc1ccc(-c2ncccc2-c2ccc3ncc(C(N)=O)n3n2)nc1 [Compound 56, 6-(5′-methyl-[2,2′-bipyridin]-3-yl)imidazo[1,2-b]pyridazine-3-carboxamide] | 5300 nM | > 15 µM
12 | COc1cccc(-c2ncccc2-c2ccc3ncc(C(N)=O)n3n2)n1 [Compound 51, 6-(6′-methoxy-[2,2′-bipyridin]-3-yl)imidazo[1,2-b]pyridazine-3-carboxamide] | 21 nM | > 15 µM
13 | Cc1cccc(-c2ncccc2-c2ccc3ncc(C(=O)NCC(F)F)n3c2)n1 [Compound 68, N-(2,2-difluoroethyl)-6-(6′-methyl-[2,2′-bipyridin]-3-yl)imidazo[1,2-a]pyridine-3-carboxamide] | 4 nM | > 15 µM
14 | CC(C)c1cccc(-c2ncccc2-c2ccc3ncc(C#N)n3n2)n1 [Compound 63, 6-(6′-isopropyl-[2,2′-bipyridin]-3-yl)imidazo[1,2-b]pyridazine-3-carbonitrile] | 1950 nM | > 15 µM
15 | Cc1cccc(-c2ncccc2-c2ccc3ncc(NC(=O)C(F)(F)F)n3c2)n1 [Compound 66, 2,2,2-trifluoro-N-(6-(6′-methyl-[2,2′-bipyridin]-3-yl)imidazo[1,2-a]pyridin-3-yl)acetamide] | 37 nM | > 15 µM
16 | NC(=O)c1cnc2ccc(-c3cccnc3-c3cccc(Cl)n3)cn12 [Compound 46, 6-(6′-chloro-[2,2′-bipyridin]-3-yl)imidazo[1,2-a]pyridine-3-carboxamide] | 0.4 nM | > 15 µM
17 | N#Cc1cnn2ccc(-c3cccnc3-c3cccc(C(F)(F)F)n3)nc12 [Compound 121, 5-(6′-(trifluoromethyl)-[2,2′-bipyridin]-3-yl)pyrazolo[1,5-a]pyrimidine-3-carbonitrile] | 854 nM | > 15 µM
18 | O=C(NC1CC1)c1cnn2ccc(-c3cccnc3-c3cccc(C(F)(F)F)n3)nc12 [Compound 126, N-cyclopropyl-5-(6′-(trifluoromethyl)-[2,2′-bipyridin]-3-yl)pyrazolo[1,5-a]pyrimidine-3-carboxamide] | 94 nM | > 15 µM
19 | COC(=O)c1ccc(-c2ncccc2-c2ccc3ncc(C(N)=O)n3c2)nc1 [Compound 26, methyl 3′-(3-carbamoylimidazo[1,2-a]pyridin-6-yl)-[2,2′-bipyridine]-5-carboxylate] | 7650 nM | > 15 µM
20 | CC(=O)Nc1cn2cc(-c3cccnc3-c3ccc(F)c(C)n3)ccc2n1 [Compound 77, N-(6-(5′-fluoro-6′-methyl-[2,2′-bipyridin]-3-yl)imidazo[1,2-a]pyridin-2-yl)acetamide] | 4 nM | > 15 µM
21 | FC(F)c1cccc(-c2ncccc2-c2ccc3[nH]ncc3c2)n1 [Compound 115, 5-(6′-(difluoromethyl)-[2,2′-bipyridin]-3-yl)-1H-indazole] | 3 nM | > 15 µM
22 | CC(C)c1cccc(-c2ncccc2-c2ccc3ncc(C(N)=O)n3n2)n1 [Compound 64, 6-(6′-isopropyl-[2,2′-bipyridin]-3-yl)imidazo[1,2-b]pyridazine-3-carboxamide] | 563 nM | > 15 µM
23 | COc1cccc(-c2ncccc2-c2ccc3ncc(C#N)n3n2)n1 [Compound 50, 6-(6′-methoxy-[2,2′-bipyridin]-3-yl)imidazo[1,2-b]pyridazine-3-carbonitrile] | 43 nM | > 15 µM
24 | FC(F)(F)c1cccc(-c2ncccc2-c2ccn3nccc3n2)n1 [Compound 136, 5-(6′-(trifluoromethyl)-[2,2′-bipyridin]-3-yl)pyrazolo[1,5-a]pyrimidine] | 15 nM | > 15 µM
25 | Cc1nc(-c2ncccc2-c2ccn3ncc(C#N)c3n2)ccc1F [Compound 122, 5-(5′-fluoro-6′-methyl-[2,2′-bipyridin]-3-yl)pyrazolo[1,5-a]pyrimidine-3-carbonitrile] | 242 nM | > 15 µM
26 | N#Cc1cnc2ccc(-c3cccnc3-c3cccc(F)n3)nn12 [Compound 65, 6-(6′-fluoro-[2,2′-bipyridin]-3-yl)imidazo[1,2-b]pyridazine-3-carbonitrile] | 397 nM | > 15 µM
27 | Cc1cccc(-c2ncccc2-c2ccc3ncc(C(=O)NC4CC4)n3n2)n1 [Compound 75, N-cyclopropyl-6-(6′-methyl-[2,2′-bipyridin]-3-yl)imidazo[1,2-b]pyridazine-3-carboxamide] | 25 nM | > 15 µM
28 | CC(C)c1cccc(-c2ncccc2-c2ccc3ncc(C(N)=O)n3c2)n1 [Compound 32, 6-(6′-isopropyl-[2,2′-bipyridin]-3-yl)imidazo[1,2-a]pyridine-3-carboxamide] | 16 nM | > 15 µM
